Test results published in paper PMC11597207, “Synthesis and Anti-Inflammatory and Analgesic Potentials of Ethyl 2-(2,5-Dioxo-1-Phenylpyrrolidin-3-yl)-2-Methylpropanoate” (Pharmaceuticals, 2024).

What was measured:
5-LOX = target: T1, 5-LOX (Homo sapiens, UniProt P09917); assay: 5-LOX inhibitory assay; format: biochemical
T1 construct: purchased Cayman Chemical Batch No.: A3457
T1 sequence (P09917 1-674): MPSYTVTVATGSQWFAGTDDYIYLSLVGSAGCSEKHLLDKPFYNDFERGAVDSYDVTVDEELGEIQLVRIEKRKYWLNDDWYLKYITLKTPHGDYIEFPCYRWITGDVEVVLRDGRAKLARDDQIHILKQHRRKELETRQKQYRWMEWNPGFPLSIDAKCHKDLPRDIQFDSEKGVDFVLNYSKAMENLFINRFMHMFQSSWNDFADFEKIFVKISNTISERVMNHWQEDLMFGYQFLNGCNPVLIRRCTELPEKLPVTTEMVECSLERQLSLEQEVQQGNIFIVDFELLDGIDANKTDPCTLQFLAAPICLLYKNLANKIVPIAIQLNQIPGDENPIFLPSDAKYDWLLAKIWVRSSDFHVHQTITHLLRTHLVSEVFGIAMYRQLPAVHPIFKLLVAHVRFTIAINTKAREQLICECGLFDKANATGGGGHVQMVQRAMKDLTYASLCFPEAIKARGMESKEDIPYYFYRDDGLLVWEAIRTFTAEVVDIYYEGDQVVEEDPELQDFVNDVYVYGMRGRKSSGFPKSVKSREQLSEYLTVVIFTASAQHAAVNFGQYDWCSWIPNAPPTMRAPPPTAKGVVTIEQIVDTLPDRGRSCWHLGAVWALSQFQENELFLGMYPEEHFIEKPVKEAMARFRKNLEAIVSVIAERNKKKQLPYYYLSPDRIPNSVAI
Description: The activity of MAK01 against the 5-LOX enzyme was investigated using a human recombinant form of 5-LOX [47]. To begin the 5-LOX activity assay, a 10,000 U/mL solution of 5-LOX was prepared in a phosphate buffer with a pH of 6.3. A range of concentrations of the test compounds in the same buffer were prepared for assay. As a substrate for 5-LOX, linoleic acid (80 mM) was diluted with ethyl alcohol and used in the assay. The experiment involved mixing the same amount of both the enzyme solution and the test sample, such as mixing 0.25 mL 5-LOX with 0.25 mL of the compound, both dissolved in buffer. The mixing was followed by incubation at 25 °C for 5 to 10 min. Subsequently, 0.10 mL of the linoleic acid solution was added and allowed to incubate for another 5 min. The absorbance was measured using a UV–visible spectrophotometer at a wavelength of 234 nm, and the percent inhibition was calculated based on the absorbance readings. The same procedure was repeated for different concentrations of the test samples. Zileuton, as a reference drug, was used in comparisons. Using the following formula, the percent inhibition for each sample was calculated: % Inhibition=Abs. of Control−Abs. of Sample/Abs. of Control×100

[1] = Solubility observation of the isolated compound; format: physicochemical

CCOC(=O)C(C)(C)C1CC(=O)N(c2ccccc2)C1=O (stereo not drawn) [MAK01, ethyl 2-(2,5-dioxo-1-phenylpyrrolidin-3-yl)-2-methylpropanoate]
IC50 (5-LOX): 363 µM
5-LOX percent inhibition (5-LOX; 62.50 μg/mL): 45%
inhibition at 62.5 µg/mL (5-LOX; 62.50 μg/mL, read-out: 5-LOX percent inhibition): 44.8%
5-LOX percent inhibition (5-LOX; 125 μg/mL): 52%
inhibition at 125 µg/mL (5-LOX; 125 μg/mL, read-out: 5-LOX percent inhibition): 51.9%
5-LOX percent inhibition (5-LOX; 250 μg/mL): 60%
inhibition at 250 µg/mL (5-LOX; 250 μg/mL, read-out: 5-LOX percent inhibition): 60.2%
5-LOX percent inhibition (5-LOX; 500 μg/mL): 70%
inhibition at 500 µg/mL (5-LOX; 500 μg/mL, read-out: 5-LOX percent inhibition): 69.9%
5-LOX percent inhibition (5-LOX; 1000 μg/mL): 79%
inhibition at 1000 µg/mL (5-LOX; 1000 μg/mL, read-out: 5-LOX percent inhibition): 79.4%
Solubility in organic solvents [1]: soluble in polar organic solvents
